Tests used:
CHRM2 = molecular target: T1, CHRM2 (Homo sapiens, UniProt P08172); experiment: Exocytosis time optimisation, granzyme B FRET readout (Example 12); assay type: cell-based; settings: agonist 10 uM
T1 construct: the entire human GPCR; mouse immunoglobulin kappa signal peptide (N); expressed in transfected cells
T1 sequence (P08172 2-466): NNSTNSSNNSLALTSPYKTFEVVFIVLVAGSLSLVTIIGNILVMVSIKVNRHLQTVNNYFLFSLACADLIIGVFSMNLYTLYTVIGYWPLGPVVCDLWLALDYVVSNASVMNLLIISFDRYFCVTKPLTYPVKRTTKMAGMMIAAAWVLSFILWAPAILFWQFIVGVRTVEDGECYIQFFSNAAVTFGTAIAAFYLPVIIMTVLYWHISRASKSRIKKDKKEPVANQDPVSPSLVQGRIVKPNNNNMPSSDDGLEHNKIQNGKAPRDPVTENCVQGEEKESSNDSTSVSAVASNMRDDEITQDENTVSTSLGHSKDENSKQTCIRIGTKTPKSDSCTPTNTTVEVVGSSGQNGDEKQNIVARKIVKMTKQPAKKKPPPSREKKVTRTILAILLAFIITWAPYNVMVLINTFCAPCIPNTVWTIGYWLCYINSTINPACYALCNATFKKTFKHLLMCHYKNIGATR
From the text: An experiment was designed to optimize assay conditions such as: exocytosis time, number of steps needed for assay and uses of cells in suspension. Cells developed in example #9 expressing both a GPCR and human granzyme B were used in this example for optimization of exocytosis time. GPCRs included were CHRM2 (an alpha-i coupled GPCR) and bradykinin type B1 receptor (an alpha-q coupled GPCR). Carbachol and kallinin from Sigma-Aldrich (USA) were used as ligands for CHRM2 and bradykinin type B1 receptor, respectively and used at 10 uM final concentration in HBSS buffer. Cells were seeded the night before experiment at 20.000 cells per well of a 96-well microplate in 100 uL of complete cell culture medium. Next day cells were washed with HBSS buffer and incubated with the ligand (agonist) at 10 uM of each GPCR in 30 uL of HBSS buffer at 37 Celsius degrees for 5, 15, 30 or 60 minutes and after centrifugation at 400 g for 5 minutes supernatants were analysed for human granzyme B activity using FAM-[…]-TAMRA at 1 uM final concentration as the human granzyme B substrate. Released FAM was measured by excitation at 485 nm and emission at 535 nm in a BMG Labtech microplate fluorimeter in 96 well microplates. Microplates were incubated at 37 Celsius degrees on the reader and were kinetically read at 0, 15, 30, 45 and 60 minutes. Control wells with substrate only in HBSS buffer were included to subtract autofluorescence of substrates to both cells treated with ligands and to cells treated with HBSS buffer only. […] The signal to background is lower at longer exocytosis times due to the higher increase in basal release than the increase in specific signal after the first 5 to 15 minutes. Thus, any exocytosis time from probably less than 5 minutes to at least 60 minutes may be used for the methods of the present invention but longer exocytosis times produce a sensor with a lower signal to background, exocytosis is nearly complete at 5 minutes and signal to background is good for a robust sensor.

hIL8 receptor (hIL8RA) = molecular target: T2, hIL8 receptor (hIL8RA) (Homo sapiens, UniProt P25024); experiment: Multiplex assay, Sensor A channel (hIL8RA and human granzyme A) (Example 14); assay type: cell-based; settings: Condition 4: Sensor A 12500 + Sensor B 5000 cells, carbachol 10 uM, no IL8, granzyme A substrate 1 uM
T2 construct: the entire human GPCR; mouse immunoglobulin kappa signal peptide (N); expressed in transfected cells
T2 sequence (P25024 3-350 limits assumed): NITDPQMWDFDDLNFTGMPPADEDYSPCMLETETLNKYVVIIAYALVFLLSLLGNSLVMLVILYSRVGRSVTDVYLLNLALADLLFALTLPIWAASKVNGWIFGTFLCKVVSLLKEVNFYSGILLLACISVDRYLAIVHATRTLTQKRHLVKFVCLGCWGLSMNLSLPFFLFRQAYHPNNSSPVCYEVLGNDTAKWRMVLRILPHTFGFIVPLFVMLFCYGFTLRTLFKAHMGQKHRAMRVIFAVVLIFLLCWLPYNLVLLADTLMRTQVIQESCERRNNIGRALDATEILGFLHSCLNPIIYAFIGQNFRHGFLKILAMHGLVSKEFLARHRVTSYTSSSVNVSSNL
From the text: The principle of multiplex reactions is illustrated in FIG. 5. RBL2H3 cells were stably transfected with a pair of a GPCR as exocytosis modulator and a granzyme as a granule stored reporter as described in example 9. Combinations included were: hIL8 receptor (hIL8RA) and human granzyme A (Sensor A) and CHRM2 and granzyme B expressing cells of example #12 (Sensor B). Human IL8 was used as agonist of hll_8R while carbachol was used as CHRM2 agonist. […] As both substrates uses the same pair of fluorophore (FAM) and quencher (TAMRA) only one substrate could be added to reaction vessel for specific detection at 535 nm after excitation at 485 nm. […] Sensors, agonists and substrates were mixed in a total volume of 20 uL of HBSS in a black walled 384 well microplate and the microplate was incubated at 37 Celsius degrees in a BMG-Labtech microplate fluorimeter and read at 0, 15, 30, 45 and 60 minutes.

## C[N+](C)(C)CCOC(N)=O [Carbachol, carbachol]
CHRM2; 5 minutes, 20.000 cells
  exocytosis, % of maximal: > 90%
CHRM2; medium taken at 5 to 15 minutes
  signal to background (S/B): 20-22
CHRM2; medium taken at 30 minutes
  signal to background (S/B): 15-17
CHRM2; medium taken at 60 minutes
  signal to background (S/B): 8-10
hIL8 receptor (hIL8RA)
  Signal to background at 30 min: 0.78
